Experimental data reported in article PMC7822874, “Chemoprotective antimalarials identified through quantitative high-throughput screening of Plasmodium blood and liver stage parasites” (Scientific Reports, 2021).
Where two headings read alike, the source gives them in different places.

Key:
[1] = test system: Plasmodium falciparum Dd2 asexual blood stage parasites; test: microbe, parasite or virus in culture; set-up: species or system Plasmodium falciparum Dd2 in human erythrocytes; single determination (one 11-point concentration-response curve); settings: Plasmodium falciparum, DD2, Erythrocyte, 72 h
in vitro = settings: human
[2] = HepG2-A16-CD81EGFP cells, uninfected

O=C(Nc1c(C(=O)c2ccccc2)oc2ccccc12)c1cc(-c2ccccc2O)n[nH]1 [MLS000331861-01]
AC50 ([1]; read-out: AC50): 2.11 µM
viability at 48 h, 1 µM (in vitro; [2]): 100%
viability at 48 h, 3 µM (in vitro; [2]): 99%

O=C(NCCCN1CCCC1)c1ccc2c(c1)N([S+](=O)([O-])c1ccccc1F)CC2 [NCGC00430450-01]
AC50 ([1]; read-out: AC50): 9.44 µM
viability at 66 h (in vitro; [2]): 97.4%

Cc1ccc(NC(=O)CC[S+](=O)([O-])c2cc(Br)cc3c2N(C(=O)C2CC2)CC3)cc1 [NCGC00107230-01]
AC50 ([1]; read-out: AC50): 2.37 µM
viability at 66 h (in vitro; [2]): 101%

CC(NCc1ccccc1)c1ccccc1O (centres unmarked) [MLS000850790-01]
AC50 ([1]; read-out: AC50): 5.31 µM
viability at 66 h (in vitro; [2]): 96.3%

Cc1ccc(-n2c(C)cc(C(=O)OCC(=O)N(C)C3CCS(=O)(=O)C3)c2C)cc1 (centres unmarked) [MLS000098265-01]
AC50 ([1]; read-out: AC50): 4.73 µM
viability at 66 h (in vitro; [2]): 101%

COc1ccc([S+](=O)([O-])Nc2ccc(C)n(CC(=O)Nc3ccccc3)c2=O)cc1 [NCGC00430934-01]
AC50 ([1]; read-out: AC50): 2.66 µM
viability at 66 h (in vitro; [2]): 103%

Oc1ccc(Nc2ccnc3cc(Cl)ccc23)cc1 [MLS000737975-01]
AC50 ([1]; read-out: AC50): 1.68 µM
viability at 66 h (in vitro; [2]): 96.9%

O=C(Nc1cccc(-c2nc3ccccc3[nH]2)c1)c1ccc(C(=O)Nc2cccc(-c3nc4ccccc4[nH]3)c2)cc1 [MLS000766212-01]
AC50 ([1]; read-out: AC50): 2.66 µM
viability at 48 h, 1 µM (in vitro; [2]): 105%
viability at 48 h, 3 µM (in vitro; [2]): 96%

Cc1c(O)c(CN2CCCCC2)cc2c1oc(=O)c1ccccc12 [MLS000551544-01]
AC50 ([1]; read-out: AC50): 0.75 µM
viability at 66 h (in vitro; [2]): 95.3%

CCc1cccc2sc(N3CCN(C(=O)c4ccc([N+](=O)[O-])o4)CC3)nc12 [MLS001234237-01]
AC50 ([1]; read-out: AC50): 1.06 µM
viability at 48 h, 1 µM (in vitro; [2]): 106%
viability at 48 h, 3 µM (in vitro; [2]): 115%

N#Cc1nc(Nc2cc(F)cc(F)c2)c2ncn(CC(F)F)c2n1 [MLS002471784-01]
AC50 ([1]; read-out: AC50): 4.73 µM
viability at 48 h, 1 µM (in vitro; [2]): 97%
viability at 48 h, 3 µM (in vitro; [2]): 87%

Cc1c(C#N)c2ccccc2n1CCOc1ccccc1F [MLS000113080-01]
AC50 ([1]; read-out: AC50): 1.68 µM
viability at 48 h, 1 µM (in vitro; [2]): 100%
viability at 48 h, 3 µM (in vitro; [2]): 97%

CCC(=O)N1CCc2cc(Br)cc(S(=O)(=O)N3CCCC(C(=O)NC(C)(C)C)C3)c21 (centres unmarked) [MLS000937025-01]
AC50 ([1]; read-out: AC50): 3.35 µM
viability at 48 h (in vitro; [2]): 98.3%
viability at 48 h, 1 µM (in vitro; [2]): 98.3%

O=C(CC[S+](=O)([O-])c1cc(Br)cc2c1N(C(=O)C1CC1)CC2)Nc1ccc(C(F)(F)F)cc1 [NCGC00107224-01]
AC50 [1]: 1.33 µM
viability at 66 h (in vitro; [2]): 97.7%

CC(C)(C)c1ccc(O)c(CN2CCN(c3ccccc3)CC2)c1 [MLS000084717-01]
AC50 [1]: 1.5 µM
viability (in vitro): 98.2%

Cc1ccccc1C(=O)NC(CC(C)C)C(=O)OCC(=O)c1c(N)n(C)c(=O)n(C)c1=O (centres unmarked) [MLS001033160-01]
AC50 ([1]; read-out: AC50): 2.66 µM
viability at 66 h (in vitro; [2]): 106%

OC(CN1CCN(c2ccccn2)CC1)Cn1c2ccc(Cl)cc2c2cc(Cl)ccc21 (centres unmarked) [MLS000529159-01]
AC50 ([1]; read-out: AC50): 2.99 µM
viability at 66 h (in vitro; [2]): 102%

COc1ccccc1C1c2[nH]c3ccccc3c2C[C@H]2C(=O)N(C3CCN(Cc4ccccc4)CC3)CC(=O)N12 (some centres unmarked) [MLS001215063-01]
AC50 ([1]; read-out: AC50): 2.11 µM
viability at 48 h, 1 µM (in vitro; [2]): 87%
viability at 48 h, 3 µM (in vitro; [2]): 85%

COc1ccc(CCn2c(=N)c(C(=O)NC3CCCC3)cc3c(=O)n4cccc(C)c4nc32)cc1 [MLS001147827-01]
AC50 ([1]; read-out: AC50): 0.75 µM
viability at 66 h (in vitro; [2]): 94.5%

Oc1ccc(Br)cc1-c1cc(-c2ccc(Cl)cc2)[nH]n1 [MLS000551526-01]
AC50 ([1]; read-out: AC50): 2.66 µM
viability at 48 h, 1 µM (in vitro; [2]): 88%
viability at 48 h, 3 µM (in vitro; [2]): 87%

Cc1ccccc1NC(=O)c1cc(C(=O)c2cc(Cl)ccc2O)cn(-c2ccccc2C)c1=O [MLS000374594-01]
AC50 ([1]; read-out: AC50): 0.376 µM
viability at 48 h, 1 µM (in vitro; [2]): 98%
viability at 48 h, 3 µM (in vitro; [2]): 93%

CC(OC(=O)CCc1cc(C(C)(C)C)c(O)c(C(C)(C)C)c1)C(=O)NC1CC1 (centres unmarked) [MLS001159754-01]
AC50 ([1]; read-out: AC50): 4.73 µM
viability at 48 h, 1 µM (in vitro; [2]): 104%
viability at 48 h, 3 µM (in vitro; [2]): 101%

CCn1c2c(c(=N)c3ccccc31)CCC2 [MLS001047391-01]
AC50 ([1]; read-out: AC50): 6.68 µM
viability at 66 h (in vitro; [2]): 97.3%

Cc1c(O)c(CN2CCCC2)cc2c1oc(=O)c1ccccc12 [MLS000081529-01]
AC50 ([1]; read-out: AC50): 2.66 µM
viability at 48 h, 1 µM (in vitro; [2]): 108%
viability at 48 h, 3 µM (in vitro; [2]): 102%

CCN(CC)C1=NC(=[N+](CC)CC)c2ccccc21.[O-][Cl+3]([O-])([O-])O [MLS000565348-01]
AC50 ([1]; read-out: AC50): 5.31 µM
viability (in vitro): 81.5%

Cc1cc(Nc2ccc3ccccc3c2)n2ncnc2n1 [MLS000077665-01]
AC50 ([1]; read-out: AC50): 0.596 µM
viability at 48 h, 1 µM (in vitro; [2]): 88%
viability at 48 h, 3 µM (in vitro; [2]): 86%

CCCN(CCC)CCCNc1ccc(C(=O)Nc2cccc(OC)c2)cc1[N+](=O)[O-] [MLS000689411-01]
AC50 ([1]; read-out: AC50): 5.96 µM
viability at 48 h, 1 µM (in vitro; [2]): 106%
viability at 48 h, 3 µM (in vitro; [2]): 104%

COc1ccc(C2c3[nH]c4ccccc4c3C[C@H]3C(=O)N(C4CCN(Cc5ccccc5)CC4)CC(=O)N23)c(OC)c1 (some centres unmarked) [MLS001213218-01]
AC50 ([1]; read-out: AC50): 2.37 µM
viability at 48 h, 1 µM (in vitro; [2]): 106%
viability at 48 h, 3 µM (in vitro; [2]): 102%

Cc1ccc(NC(=O)c2ccc(NCCCN3CCC(C)CC3)c([N+](=O)[O-])c2)cc1F [MLS000689412-01]
AC50 ([1]; read-out: AC50): 6.68 µM
viability at 48 h, 1 µM (in vitro; [2]): 106%
viability at 48 h, 3 µM (in vitro; [2]): 104%

Cc1cc(C(C)c2ccccc2)c(O)c(CN2CCOCC2)c1C (centres unmarked) [MLS000064176-01]
AC50 ([1]; read-out: AC50): 2.99 µM
viability at 48 h (in vitro; [2]): 108%
viability at 48 h, 1 µM (in vitro; [2]): 108%

Cc1ccc2sc(N3CCN(C(=O)c4ccc([N+](=O)[O-])o4)CC3)nc2c1C [MLS001234068-01]
AC50 ([1]; read-out: AC50): 5.31 µM
viability at 48 h, 1 µM (in vitro; [2]): 111%
viability at 48 h, 3 µM (in vitro; [2]): 105%

Cc1ccc(S(=O)(=O)c2nnn3c2nc(N2CCN(c4ccccn4)CC2)c2ccccc23)cc1 [MLS001124278-01]
AC50 ([1]; read-out: AC50): 7.5 µM
viability at 48 h (in vitro; [2]): 98.6%
viability at 48 h, 1 µM (in vitro; [2]): 98.6%

CC(NCc1ccc(Cl)cc1Cl)C(O)c1ccccc1 (centres unmarked) [MLS000582862-01]
AC50 ([1]; read-out: AC50): 4.73 µM
viability at 48 h, 1 µM (in vitro): 120%
viability at 48 h, 3 µM (in vitro): 104%

Cc1cc(C)cc(/N=C/c2[nH]c3ccc(Br)c(Cl)c3c2O)c1 [MLS000586008-01]
AC50 ([1]; read-out: AC50): 11.9 µM
viability at 48 h, 1 µM (in vitro; [2]): 104%
viability at 48 h, 3 µM (in vitro; [2]): 99%

CCN(CC)CCCC(C)Nc1cc(C=Cc2ccccc2Cl)nc2cc(Cl)ccc12 (centres unmarked) [NCGC00160524-01]
AC50 ([1]; read-out: AC50): 0.841 µM
viability at 48 h, 1 µM (in vitro; [2]): 103%
viability at 48 h, 3 µM (in vitro; [2]): 99%

O=C(CC[S+](=O)([O-])c1cc(Br)cc2c1N(C(=O)C1CC1)CC2)Nc1ccc(Br)cc1F [NCGC00107188-01]
AC50 [1]: 3.35 µM
viability at 66 h (in vitro; [2]): 94%

OC(CNC1CCCCCC1)COc1cccc2ccccc12 (centres unmarked) [MLS001174634-01]
AC50 ([1]; read-out: AC50): 1.88 µM
viability at 48 h, 1 µM (in vitro; [2]): 103%
viability at 48 h, 3 µM (in vitro; [2]): 98%

CCOC(=O)c1cn(CC)c2cc(N3CCSCC3)c(F)cc2c1=O [MLS000038775-01]
AC50 ([1]; read-out: AC50): 1.68 µM
viability at 48 h, 1 µM (in vitro; [2]): 89%
viability at 48 h, 3 µM (in vitro; [2]): 85%

COc1ccc(N2/C(=C/C(C)=O)NC(=O)c3c(C)cc(C)nc32)cc1 [MLS000088720-01]
AC50 ([1]; read-out: AC50): 3.35 µM
viability at 66 h (in vitro; [2]): 103%

COc1cc(O)c(C(CCN2CCCC(C)C2)c2cc(OC)c(OC)c(OC)c2)c(OC)c1 (centres unmarked) [MLS000879467-01]
AC50 ([1]; read-out: AC50): 1.88 µM
viability at 48 h, 1 µM (in vitro; [2]): 90%
viability at 48 h, 3 µM (in vitro; [2]): 88%

Cc1cc(N2CCN(C3CCCCC3)CC2)nc2cccc(O)c12 [MLS000118317-01]
AC50 ([1]; read-out: AC50): 5.31 µM
viability at 48 h, 1 µM (in vitro; [2]): 104%
viability at 48 h, 3 µM (in vitro; [2]): 105%

COc1cccc(NC(=O)c2ccc(NCCCN3CCC(C)CC3)c([N+](=O)[O-])c2)c1 [MLS000689409-01]
AC50 ([1]; read-out: AC50): 7.5 µM
viability at 66 h (in vitro; [2]): 108%

COC(=O)c1c(-c2c(Cl)cccc2Cl)noc1NC(=O)NN1CCCCC1 [MLS000861266-01]
AC50 ([1]; read-out: AC50): 2.37 µM
viability at 48 h, 1 µM (in vitro; [2]): 93%
viability at 48 h, 3 µM (in vitro; [2]): 87%

COc1ccc(C(C(=O)Nc2ccc(C(C)C)cc2)N(Cc2ccco2)C(=O)CC2NC(=O)NC2=O)cc1 (centres unmarked) [MLS000729756-01]
AC50 ([1]; read-out: AC50): 6.68 µM
viability at 48 h, 1 µM (in vitro; [2]): 99%
viability at 48 h, 3 µM (in vitro; [2]): 94%

CC1Cc2nc(SCC(=O)Nc3ccc4c(c3)OCO4)n(-c3ccc(F)cc3)c(=O)c2S1 (centres unmarked) [MLS000685016-01]
AC50 ([1]; read-out: AC50): 2.99 µM
viability at 48 h, 1 µM (in vitro; [2]): 97%
viability at 48 h, 3 µM (in vitro; [2]): 93%

Cc1cc(C)cc(N(CC(=O)NCc2ccc3c(c2)OCO3)C(=O)CCC(=O)Nc2ccccn2)c1 [MLS000032464-01]
AC50 ([1]; read-out: AC50): 4.22 µM
viability at 66 h (in vitro; [2]): 96.4%

CCCc1cc(=O)oc2c(C)c(O)c(CN3CCCCC3)cc12 [MLS000081526-01]
AC50 ([1]; read-out: AC50): 3.35 µM
viability at 66 h (in vitro; [2]): 104%
